Patent US8263631B2, “Anti-cancer pharmaceutical compositions and methods for treating patients with cancer” (Daiichi Sankyo Company, Limited, priority 2006, dated 2012)
Marks after values point to notes of the source that are not given here.

Legend:
[1] = system: human colon cancer line WiDr; assay: In vivo anti-tumor activity against human colon cancer cells (WiDr tumor-bearing nude mouse); conditions: once a day, 5 times per week
Source text: In the experiment, human colon cancer line WiDr (purchased from American Type Culture Collection), in which it was confirmed that no mouse pathogenic microorganism was detected by quarantine, was transplanted to a subcutaneous axillary portion of a nude mouse BALB/cA Jcl-nu (CLEA Japan, Inc.), to subculture a tumor. The tumor was cut into small pieces of 5 mm size, and was transplanted to a right subcutaneous axillary portion of a BALB/cA Jcl-nu mouse by using a troker (CLEA Japan, Inc.). The required amounts of Compounds X and Y were each weighed and were dissolved in N,N-dimethylacetamide (DMA: Wako Pure Chemical Industries, Ltd.), and 5% Emulphor 620 (GAF Corporation)-saline (Otsuka Pharmaceutical Co., Ltd.) was then added to the mixtures in small amounts, so that the concentrations of the compounds were each adjusted to 0.2, 1 or 5 mg/mL. Here, DMA was made to have a final concentration of 2.5%. […] Twice a week, the major axis and the minor axis of the transplanted tumor were measured using digital micrometer calipers (MAX-CAL MAX-15: Nihon Sokutei Kougu Kabusiki Kaisha), and tumor proliferation inhibitory activity was obtained from the following calculation formula and expressed as the tumor volume inhibition rate. Average tumor volume in each test group (mm^3)=½×(minor axis)^2 (mm^2)×(major axis) (mm) Tumor volume inhibition rate (%)={1−(average tumor volume of drug administration group/average tumor volume of drug non-administration group)}×100
Evaluation of anti-tumor activity of each of the drug administration groups was determined by the tumor volume inhibition rate. In addition, a statistical difference test was determined by conducting Students' t test with respect to the tumor the volume of drug non-administration control group and the drug administration group 38 days after transplantation.

[2] = system: human kidney cancer line SN12-PM6; assay: In vivo anti-tumor activity against human kidney cancer (SN12-PM6 tumor-bearing nude mouse); conditions: 0.1 mL per 10 g orally, once a day, 5 times per week, day 10 to 56
Source text: In the experiment, human kidney cancer line SN12-PM6 (provided by Professor Seiji Naito of Kyushu University), in which it was confirmed that no mouse pathogenic microorganism was detected by quarantine, was transplanted to a subcutaneous axillary portion of a nude mouse BALB/cA Jcl-nu (CLEA Japan, Inc.), to subculture a tumor. The tumor was cut into small pieces in a size of 5 mm, and transplanted to a right subcutaneous axillary portion of a BALE/cA Jcl-nu mouse by using a troker (CLEA Japan, Inc.). […] Subsequently, distilled water (Otsuka Pharmaceutical Factory, Inc.) was added so that the final concentrations of ethanol and cremophor became each 12.5%. […] Twice a week, the major axis and the minor axis of the transplanted tumor were measured using digital micrometer calipers (MAX-CAL MAX-15: Nihon Sokutei Kougu Kabusikikaisha), and tumor proliferation inhibitory activity was obtained from the following calculation formula and expressed as the tumor volume inhibition rate. […]
Evaluation of anti-tumor activity for each of the drug administration group was determined by the tumor volume inhibition rate. In addition, a statistical difference test was determined by conducting Students' t test with respect to the tumor volumes of the drug non-administration control group and the drug administration group 59 days after transplantation.

[3] = system: MKN74, MKN28, ZR-75-1, SBC-1, AsPC-1, DU-145, ACHN, D341 Med, A-204, RD-ES, SW872, U266 cancer cell lines; assay: Evaluation of cancer cell proliferation inhibitory activity (sulforhodamine B staining, absorbance A490); format: cell-based, human; conditions: 0.1, 1 or 10 μM (AsPC-1: 0.05, 0.5 or 5 μM), 7 days (U266: 4 days); all cancer cell lines, FIGS. 1-3
Source text: Human gastric cancer cell line (MKN74, MKN28) purchased from Immuno-Biological Laboratories Co., Ltd., human breast cancer cell line (ZR-75-1), small-cell lung cancer line (SBC-1), pancreatic cancer cell line (AsPC-1), prostate cancer cell line (DU-145), kidney cancer cell line (ACHN), medulloblastoma line (D341 Med), human sarcoma cell line (rhabdomyosarcoma line A-204, Ewing's sarcoma line RD-ES, liposarcoma line SW872) and multiple myeloma line (U266) that were purchased from […] were used in the test. […]
To the control group was added only DMSO so that its concentration became 0.1%. […] 10 mM Tris was added at […] to each well in which cancer cells were immobilized and stained, and absorbance A490 of each well was measured using MICROPLATE READER Model 3550 (Bio-Rad Laboratories, Inc.). […]
In each of the graphs, the longitudinal axis represents the absorbance [%], and the horizontal axis represents the concentration of Compound X [μM].

[4] = system: human leukemia cell line HL-60; assay: Cell proliferation inhibitory activity against human leukemia cell (Cell Titer 96); format: cell-based; conditions: 5 days
[5] = system: human leukemia cell line THP-1; assay: as above; format: cell-based; conditions: 5 days
[6] = system: human non-small-cell lung cancer line A549; assay: In vitro cell proliferation inhibitory activity, combination with VEGFR and Raf kinase inhibitor; format: cell-based; conditions: Compound X 10 μM alone, A549, 6 days
Protocol: Human non-small-cell lung cancer line A549 cells were inoculated on a 96-well plate at 5×10^2 cells/well, and at the same time, agents of various concentrations dissolved in DMSO were added so that the concentration of DMSO became 0.1%. […] After addition of the drugs, the cells were cultivated in the presence of 5% carbon dioxide at 37° C. for 6 days. Then, Cell Titer 96 Aqueous One Solution Reagent (Promega Corp.) was added at 40 μl/well each, and then absorbance A490 of each well was measured using MICROPLATE READER (Bio-Rad Laboratories, Inc.).

[7] = system: human non-small-cell lung cancer line A549; assay: In vitro cell proliferation inhibitory activity, combination with EGFR inhibitor; conditions: Compound X 10 μM alone, A549, 7 days
Protocol: Human non-small-cell lung cancer line A549 cells (purchased from American Tissue Culture Collection) were cultured using 10% fetal bovine serum (Hyclone Laboratories, Inc.)-RPMI (Invitrogen Corporation). A549 cells were inoculated on a 96-well plate at 5×10^2 cells/well, and at the same time, the agents of various concentrations dissolved in DMSO were added so that the concentration of DMSO became 0.1%. […] After the addition of the drugs, cells were cultivated in the presence of 5% carbon dioxide at 37° C. for 7 days. Then, Cell Titer 96 Aqueous One Solution Reagent (Promega Corp.) was added at 40 μl/well each, followed by 2 hours of cultivation. Absorbance A490 of each well was measured using MICROPLATE READER (Bio-Rad Laboratories, Inc.).

[8] = system: human non-small-cell lung cancer line A549; assay: In vivo anti-tumor activity against non-small-cell lung cancer (A549 tumor-bearing nude mouse); conditions: Compound X alone, 1 mg/mL, 0.1 mL per 10 g orally, once a day, 5 times per week, day 14 to 60
Source text: In the experiment, human non-small-cell lung cancer line A549 (purchased from American Type Culture Collection), in which it was confirmed that no mouse pathogenic microorganism was detected by quarantine, was transplanted to a subcutaneous axillary portion of a nude mouse BALB/cA Jcl-nu (CLEA Japan, Inc.), to subculture a tumor. The tumor was cut into small pieces of 5 mm size, and transplanted to a right subcutaneous axillary portion of a BALB/cA Jcl-nu mouse by using a troker (CLEA Japan, Inc.). […] Twice a week, the major axis and the minor axis of the transplanted tumor were measured using digital micrometer calipers (MAX-CAL MAX-15: Nihon Sokutei Kougu Kabusiki Kaisha), and tumor proliferation inhibitory activity was obtained from the following calculation formula and expressed as the tumor volume inhibition rate. […]
Evaluation of anti-tumor activity for each of the drug administration groups was determined by the tumor volume inhibition rate. In addition, a statistical difference test was determined by conducting Students' t test with respect to tumor volume of the drug non-administration control group and the drug administration group 63 days after transplantation.

[9] = 2 mg/kg orally, determined on Day 35, Exp. 2
[10] = 10 mg/kg orally, determined on Day 35, Exp. 2
[11] = 50 mg/kg orally, determined on Day 35, Exp. 1
[12] = 50 mg/kg orally, determined on Day 35, Exp. 2

| Compound | Tumor volume inhibition rate [1, 9] | Tumor volume inhibition rate [1, 10] | Tumor volume inhibition rate [1, 11] | Tumor volume inhibition rate [1, 12] | Tumor volume inhibition rate ([2]; sorafenib alone, 10 mg/mL) [%] | cancer cell proliferation inhibitory activity (absorbance % of DMSO control) [3] | HL-60 Proliferation inhibition rate ([4]; Compound X 10 μM) [%] | HL-60 Proliferation inhibition rate ([4]; Compound X 25 μM) | HL-60 Proliferation inhibition rate ([4]; Compound X 50 μM) | THP-1 Proliferation inhibition rate ([5]; Compound X 10 μM) [%] | THP-1 Proliferation inhibition rate ([5]; Compound X 25 μM) [%] | THP-1 Proliferation inhibition rate ([5]; Compound X 50 μM) | Proliferation inhibition rate [6] [%] | Tumor volume inhibition rate ([2]; Compound X alone, 0.3 mg/mL) [%] | Cell proliferation inhibition rate [7] [%] | Tumor volume inhibition rate [8] [%] |
| --- | --- | --- | --- | --- | --- | --- | --- | --- | --- | --- | --- | --- | --- | --- | --- | --- |
| CC(C)Nc1cccc(Oc2ccc3nc(COc4ccc(CC5SC(=O)NC5=O)cc4)n(C)c3c2)c1.Cl.Cl (centres unmarked) [Compound Y, 5-(4-(6-(3-Isopropylamino-phenoxy)-1-methyl-1H-benzimidazol-2-ylmethoxy)-benzyl)-thiazolidine-2,4-dione.dihydrochloride] | 26* % | 32* % | 35* % | 40* % |  |  |  |  |  |  |  |  |  |  |  |  |
| CNC(=O)c1cc(Oc2ccc(NC(=O)Nc3ccc(Cl)c(C(F)(F)F)c3)cc2)ccn1 [Sorafenib, sorafenib, reference compound] |  |  |  |  | 43 |  |  |  |  |  |  |  |  |  |  |  |
| Cc1cc(Oc2ccc3nc(COc4ccc(CC5SC(=O)NC5=O)cc4)n(C)c3c2)cc(C)c1N.Cl.Cl (centres unmarked) [Compound X, 5-(4-(6-(4-Amino-3,5-dimethyl-phenoxy)-1-methyl-1H-benzimidazol-2-ylmethoxy)-benzyl)-thiazolidine-2,4-dione.dihydrochloride] | 31* % | 35* % | 49* % | 38* % |  | significant proliferation inhibitory activity | 23 | 27* % | 45** % | 7 | 20 | 48** % | 15 | 37 | 12 | 33 |
